From ChEMBL document CHEMBL1201862, “PubChem BioAssay data set” (2004)
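All cell lines were grown in 96-well plates and treated with compound for 48 hours. GI50 marks 50% less growth.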 The source made the active and inactive calls. Rule as the data show it: active = GI50 up to about 1.1 µM and inactive = higher.

Assays:
Assay in all cases: DTP human tumour cell line panel, 48 h
A498 = tested on: A498
ACHN = tested on: ACHN
BT-549 = tested on: BT-549
COLO 205 = tested on: COLO 205
HCT-116 = tested on: HCT-116
HOP-92 = tested on: HOP-92
Hs-578T = tested on: Hs-578T
MCF7 = tested on: MCF7
MDA-MB-435 = tested on: MDA-MB-435
NCI-H23 = tested on: NCI-H23
NCI/ADR-RES = tested on: NCI/ADR-RES
OVCAR-4 = tested on: OVCAR-4
SK-MEL-2 = tested on: SK-MEL-2
SK-MEL-5 = tested on: SK-MEL-5
SN12C = tested on: SN12C
T47D = tested on: T47D
EKVX = tested on: EKVX
KM12 = tested on: KM12
SF-295 = tested on: SF-295
MDA-N = tested on: MDA-N

Measured: GI50

COc1ccc(/C=C2\N=C(SC)N(C)C2=O)cc1
inactive: A498 37.8 µM | ACHN 38.8 µM | BT-549 > 100 µM | COLO 205 94.6 µM | HCT-116 75.2 µM | HOP-92 > 100 µM | Hs-578T 22.8 µM | MCF7 49.4 µM | MDA-MB-435 51.4 µM | NCI-H23 > 100 µM | NCI/ADR-RES 86.9 µM | OVCAR-4 39.6 µM | SK-MEL-2 > 100 µM | SK-MEL-5 42.3 µM | SN12C 71.6 µM | T47D 42.6 µM

COC1=CC23CCCN2CCc2cc4c(cc2C3C1O)OCO4 (stereo unspecified)
inactive: A498 59.3 µM | ACHN 22.3 µM | BT-549 > 100 µM | COLO 205 24.5 µM | EKVX 52.5 µM | HCT-116 44.5 µM | HOP-92 > 100 µM | Hs-578T 82 µM | KM12 47 µM | MCF7 48.5 µM | MDA-MB-435 > 100 µM | NCI-H23 62.8 µM | NCI/ADR-RES > 100 µM | OVCAR-4 44.6 µM | SF-295 36.1 µM | SK-MEL-2 54.2 µM | SK-MEL-5 20 µM | SN12C 57.5 µM | T47D 92.5 µM

Cc1c(C)c(C)c(-n2c(=O)n(C)c(=O)n2C(C)(C)C)c(C)c1C
inactive: A498 > 100 µM | ACHN > 100 µM | BT-549 > 100 µM | COLO 205 > 100 µM | HCT-116 > 100 µM | HOP-92 > 100 µM | Hs-578T > 100 µM | KM12 > 100 µM | MCF7 > 100 µM | MDA-MB-435 > 100 µM | MDA-N > 100 µM | NCI-H23 > 100 µM | OVCAR-4 > 100 µM | SF-295 > 100 µM | SK-MEL-2 > 100 µM | SK-MEL-5 > 100 µM | SN12C > 100 µM | T47D > 100 µM

C=CCN(CC=C)Cn1c(=S)sc2ccccc21
inactive: ACHN > 100 µM | BT-549 > 100 µM | COLO 205 48.6 µM | EKVX > 100 µM | HCT-116 > 100 µM | HOP-92 36.4 µM | Hs-578T > 100 µM | KM12 > 100 µM | MCF7 > 100 µM | MDA-MB-435 > 100 µM | MDA-N > 100 µM | NCI-H23 > 100 µM | NCI/ADR-RES > 100 µM | OVCAR-4 86.3 µM | SF-295 > 100 µM | SK-MEL-2 > 100 µM | SK-MEL-5 28.8 µM | SN12C > 100 µM

C[C@]12CCC(=O)C=C1CC[C@@H]1C2CC[C@]2(C)c3nn(-c4ccc(F)cc4)nc3CC12 (stereo partly specified)
inactive: A498 49.8 µM | ACHN > 100 µM | BT-549 > 100 µM | COLO 205 > 100 µM | EKVX > 100 µM | HCT-116 > 100 µM | HOP-92 61.1 µM | Hs-578T 64.6 µM | KM12 > 100 µM | MCF7 > 100 µM | MDA-MB-435 > 100 µM | MDA-N > 100 µM | NCI-H23 > 100 µM | OVCAR-4 49.3 µM | SF-295 69.8 µM | SK-MEL-5 > 100 µM | SN12C > 100 µM | T47D > 100 µM

COc1ccc2c(c1)C(N)CC2=O (stereo unspecified)
inactive: A498 > 100 µM | ACHN > 100 µM | BT-549 > 100 µM | COLO 205 > 100 µM | EKVX > 100 µM | HCT-116 > 100 µM | HOP-92 > 100 µM | Hs-578T > 100 µM | KM12 > 100 µM | MCF7 > 100 µM | MDA-MB-435 > 100 µM | NCI-H23 > 100 µM | NCI/ADR-RES > 100 µM | OVCAR-4 > 100 µM | SF-295 > 100 µM | SK-MEL-2 27 µM | SK-MEL-5 > 100 µM | SN12C > 100 µM | T47D > 100 µM

CCN(CC)CCCC(C)NC(=O)c1cc(-c2nccn2C)nc2ccc(C)cc12 (stereo unspecified)
inactive: A498 > 100 µM | ACHN > 100 µM | BT-549 > 100 µM | COLO 205 > 100 µM | EKVX > 100 µM | HCT-116 > 100 µM | HOP-92 > 100 µM | KM12 > 100 µM | MCF7 64.7 µM | MDA-MB-435 > 100 µM | MDA-N > 100 µM | NCI-H23 > 100 µM | NCI/ADR-RES > 100 µM | OVCAR-4 67.5 µM | SK-MEL-2 > 100 µM | SK-MEL-5 > 100 µM | SN12C > 10 µM | T47D > 100 µM

COc1ccc(-n2c3c(c4cc(O)ccc42)Cc2ccccc2C3=O)cc1
inactive: A498 90.6 µM | BT-549 > 100 µM | COLO 205 11.7 µM | HCT-116 27.6 µM | Hs-578T > 100 µM | KM12 28.8 µM | MCF7 9.16 µM | MDA-MB-435 64.6 µM | MDA-N 65.6 µM | NCI-H23 > 100 µM | NCI/ADR-RES 73.8 µM | OVCAR-4 7.83 µM | SF-295 16.5 µM | SK-MEL-2 65.3 µM | SK-MEL-5 39.2 µM | SN12C 57.3 µM

Cc1c2cnccc2nc2[nH]c3ccncc3c12
inactive: A498 5.47 µM | ACHN 1.59 µM | BT-549 6.92 µM | COLO 205 8.49 µM | EKVX 16 µM | HOP-92 3.78 µM | Hs-578T 16.6 µM | KM12 6.79 µM | MDA-MB-435 6.46 µM | MDA-N 10.6 µM | NCI-H23 1.44 µM | OVCAR-4 11.7 µM | SF-295 6.84 µM | SK-MEL-2 11.4 µM | SK-MEL-5 5.69 µM | SN12C 3.33 µM | T47D 12.4 µM

C=C(C)CCN(C(=O)OC(C)(C)C)c1cc(C(C)C)co1
inactive: A498 > 100 µM | ACHN 73.6 µM | BT-549 12.2 µM | COLO 205 58.2 µM | EKVX 45.1 µM | HCT-116 47.9 µM | HOP-92 11.4 µM | KM12 64.3 µM | MCF7 40.4 µM | MDA-MB-435 96.2 µM | MDA-N 95.7 µM | NCI-H23 54 µM | NCI/ADR-RES 24.2 µM | OVCAR-4 59.2 µM | SF-295 51.4 µM | SK-MEL-2 28.5 µM | SK-MEL-5 44.3 µM | SN12C > 100 µM | T47D 24.8 µM

CC(NNC(=O)c1ccc[n+]([BH2-]C#N)c1)c1ccccc1 (stereo unspecified)
inactive: ACHN > 100 µM | BT-549 > 100 µM | COLO 205 > 100 µM | EKVX > 100 µM | HCT-116 > 100 µM | HOP-92 > 100 µM | KM12 > 100 µM | MCF7 > 100 µM | MDA-MB-435 > 100 µM | MDA-N > 100 µM | NCI-H23 > 100 µM | NCI/ADR-RES > 100 µM | OVCAR-4 > 100 µM | SF-295 > 100 µM | SK-MEL-2 > 100 µM | SK-MEL-5 > 100 µM | SN12C > 100 µM | T47D > 100 µM
